# Assay: method code SF-AS, from DOI: 10.1016/0048-3575(91)90045-n
row,Compound,logP
1,Cc1ccc(NC(=O)NC(=O)c2c(F)cccc2F)cc1Cl,2.69
2,O=C(NC(=O)c1c(F)cccc1F)Nc1ccc(I)cc1,2.46
3,O=C(NC(=O)c1c(F)cccc1F)Nc1cc(C(F)(F)F)ccc1F,2.24
4,O=C(NC(=O)c1c(F)cccc1F)Nc1cc(OC(F)(F)F)c(Br)cc1F,3.24
5,O=C(NC(=O)c1c(F)cccc1F)Nc1cc(C(F)(F)F)c(Cl)cc1F,3.02
6,O=C(NC(=O)c1c(F)cccc1F)Nc1cc(Cl)ccc1Cl,2.19
7,Cc1cc(Br)ccc1NC(=O)NC(=O)c1c(F)cccc1F,2.03
8,CCCCc1ccc(NC(=O)NC(=O)c2c(F)cccc2F)cc1,3.3
9,O=C(NC(=O)c1c(F)cccc1F)Nc1c(F)cc(Br)c(C(F)(F)F)c1Br,3.07
10,Cc1cc(Br)cc(C)c1NC(=O)NC(=O)c1c(F)cccc1F,2.12
11,O=C(NC(=O)c1c(F)cccc1F)Nc1ccccc1F,1.03
12,Cc1cc(Oc2ncc(C(F)(F)F)cc2Cl)ccc1NC(=O)NC(=O)c1c(F)cccc1F,3.23
13,Cc1ccc(C)c(NC(=O)NC(=O)c2c(F)cccc2F)c1,1.47
14,O=C(NC(=O)c1c(F)cccc1F)Nc1cc(Cl)cc(Cl)c1,3.17
15,O=C(NC(=O)c1c(F)cccc1F)Nc1cc(Cl)cc(C(F)(F)F)c1F,3.15
16,O=C(NC(=O)c1c(F)cccc1F)Nc1cc(Cl)c(Oc2ncc(C(F)(F)F)cc2Cl)c(Cl)c1,5.54
17,O=C(NC(=O)c1c(F)cccc1F)Nc1ccc(Cl)cc1,2.12
18,CC(C)COc1cc(NC(=O)NC(=O)c2c(F)cccc2F)c(F)cc1Cl,3.79
19,O=C(NC(=O)c1c(F)cccc1F)Nc1ccc(Br)c(OC(F)(F)F)c1,3.48
20,Cc1c(Br)ccc(NC(=O)NC(=O)c2c(F)cccc2F)c1Cl,2.73
21,Cc1cc(NC(=O)NC(=O)c2c(F)cccc2F)cc(C)c1Br,3.28

row,Compound,logP
1,O=C(NC(=O)c1c(F)cccc1F)Nc1c(F)cc(Br)cc1F,1.73
2,Cc1cc(NC(=O)NC(=O)c2c(F)cccc2F)cc(C)c1C,2.5
3,O=C(NC(=O)c1c(F)cccc1F)Nc1cc(Cl)c(Cl)c(Cl)c1Cl,2.9
4,CCCCc1ccc(NC(=O)NC(=O)c2c(F)cccc2F)c(C)c1,3.1
5,Cc1cc(C)cc(NC(=O)NC(=O)c2c(F)cccc2F)c1,2.17
6,O=C(NC(=O)c1c(F)cccc1F)Nc1cc(F)cc(C(F)(F)F)c1Cl,2.86
7,O=C(NC(=O)c1c(F)cccc1F)Nc1cc([N+](=O)[O-])c(Br)cc1F,2.11
8,O=C(NC(=O)c1c(F)cccc1F)Nc1ccc(Cl)c(C(F)(F)F)c1,3.33
9,Cc1cc(NC(=O)NC(=O)c2c(F)cccc2F)ccc1Br,2.8
10,O=C(NC(=O)c1c(F)cccc1F)Nc1cc(C(F)(F)F)c(F)cc1F,2.34
11,Cc1ccc(NC(=O)NC(=O)c2c(F)cccc2F)cc1C,2.1
12,O=C(NC(=O)c1c(F)cccc1F)Nc1ccc(Cl)cc1F,1.91
13,CCc1ccc(NC(=O)NC(=O)c2c(F)cccc2F)cc1,2.2
14,O=C(NC(=O)c1c(F)cccc1F)Nc1ccc(Cl)c(Cl)c1,3
15,O=C(NC(=O)c1c(F)cccc1F)Nc1ccccc1Br,1.34
16,O=C(NC(=O)c1c(F)cccc1F)Nc1ccccc1C(F)(F)F,1.17
17,O=C(NC(=O)c1c(F)cccc1F)Nc1cc(C(F)(F)F)cc(C(F)(F)F)c1Br,3.51
18,O=C(NC(=O)c1c(F)cccc1F)Nc1cccc(C(F)(F)F)c1,2.56
19,CCc1cc(Br)ccc1NC(=O)NC(=O)c1c(F)cccc1F,2.27
20,O=C(NC(=O)c1c(F)cccc1F)Nc1cc(Cl)c(F)c(Cl)c1F,2.9
21,O=C(NC(=O)c1c(F)cccc1F)Nc1c(F)ccc(C(F)(F)F)c1Br,2.22

# Now from value to molecule:
row,logP,Compound
1,2.69,Cc1c(NC(=O)NC(=O)c2c(F)cccc2F)ccc(Br)c1Cl
2,1.35,Cc1cccc(NC(=O)NC(=O)c2c(F)cccc2F)c1C
3,3.27,O=C(NC(=O)c1c(F)cccc1F)Nc1cc(Cl)cc(C(F)(F)F)c1Cl
4,3.84,Cc1cc(Oc2ncc(C(F)(F)F)cc2Cl)c(C)cc1NC(=O)NC(=O)c1c(F)cccc1F
5,4.23,CCCCc1ccc(NC(=O)NC(=O)c2c(F)cccc2F)cc1Br
6,2.64,O=C(NC(=O)c1c(F)cccc1F)Nc1ccc(F)c(C(F)(F)F)c1
7,3.17,O=C(NC(=O)c1c(F)cccc1F)Nc1cc(C(F)(F)F)c(Br)cc1F
8,2.02,COc1cc(Br)ccc1NC(=O)NC(=O)c1c(F)cccc1F
9,2.09,O=C(NC(=O)c1c(F)cccc1F)Nc1cccc(Cl)c1Cl
10,3.24,O=C(NC(=O)c1c(F)cccc1F)Nc1cc(C(F)(F)F)c(Cl)cc1Cl
11,3.72,O=C(NC(=O)c1c(F)cccc1F)Nc1cc(C(F)(F)F)cc(C(F)(F)F)c1
12,2.57,Cc1cc(NC(=O)NC(=O)c2c(F)cccc2F)ccc1Cl
13,3.26,O=C(NC(=O)c1c(F)cccc1F)Nc1cc(Cl)cc(C(F)(F)F)c1Br
14,3.04,O=C(NC(=O)c1c(F)cccc1F)Nc1cc(Cl)cc(Cl)c1Br
15,2.29,O=C(NC(=O)c1c(F)cccc1F)Nc1ccc(Br)cc1
16,2.2,C#CCOc1cc(NC(=O)NC(=O)c2c(F)cccc2F)c(F)cc1Cl
17,1.98,O=C(NC(=O)c1c(F)cccc1F)Nc1ccc(Cl)cc1C(F)(F)F
18,2.84,CC(C)Oc1cc(NC(=O)NC(=O)c2c(F)cccc2F)c(F)cc1Cl
19,1.82,Cc1c(Cl)cccc1NC(=O)NC(=O)c1c(F)cccc1F
20,1.83,O=C(NC(=O)c1c(F)cccc1F)Nc1cccc(Cl)c1F

row,logP,Compound
1,2.18,O=C(NC(=O)c1c(F)cccc1F)Nc1ccc(Cl)cc1Cl
2,3.1,CCCCc1ccc(NC(=O)NC(=O)c2c(F)cccc2F)c([N+](=O)[O-])c1
3,4.56,O=C(NC(=O)c1c(F)cccc1F)Nc1cc(C(F)(F)F)c(Br)c(C(F)(F)F)c1
4,2.48,O=C(NC(=O)c1c(F)cccc1F)Nc1cc(OC(F)(F)F)c(F)cc1F
5,4.46,O=C(NC(=O)c1c(F)cccc1F)Nc1ccc(Oc2ncc(C(F)(F)F)cc2Cl)c(Cl)c1Cl
6,3.64,CCCCc1ccc(NC(=O)NC(=O)c2c(F)cccc2F)cc1C
7,2.86,O=C(NC(=O)c1c(F)cccc1F)Nc1ccc(Br)c(Cl)c1F
8,3.39,CCCCc1ccc(NC(=O)NC(=O)c2c(F)cccc2F)c(Br)c1
9,1.16,O=C(NC(=O)c1c(F)cccc1F)Nc1ccccc1
10,4.52,O=C(NC(=O)c1c(F)cccc1F)Nc1ccc(Oc2ncc(C(F)(F)F)cc2Cl)c(Cl)c1
11,2.18,CSc1cc(Br)ccc1NC(=O)NC(=O)c1c(F)cccc1F
12,3.33,CCc1cc(NC(=O)NC(=O)c2c(F)cccc2F)ccc1Br
13,1.46,Cc1ccc(NC(=O)NC(=O)c2c(F)cccc2F)c(C)c1
14,3.76,O=C(NC(=O)c1c(F)cccc1F)Nc1cc(Cl)c(Cl)c(Cl)c1
15,1.47,O=C(NC(=O)c1c(F)cccc1F)Nc1ccc(F)cc1
16,3.41,O=C(NC(=O)c1c(F)cccc1F)Nc1cc(Br)cc(C(F)(F)F)c1Cl
17,3.27,O=C(NC(=O)c1c(F)cccc1F)Nc1cc(C(F)(F)F)cc(Cl)c1Cl
18,2.76,C=CCOc1cc(NC(=O)NC(=O)c2c(F)cccc2F)c(F)cc1Cl
19,2.88,O=C(NC(=O)c1c(F)cccc1F)Nc1ccc(Cl)c(Cl)c1Cl

# Source: the SangsterLogP compilation
